Test results from patent publication US20250177408A1, “INHIBITOR OF INTERACTION BETWEEN YAP/TAZ AND TEAD, PREPARATION THEREOF, PHARMACEUTICAL COMPOSITION THEREOF AND USE THEREOF” (ETERN BIOPHARMA (SHANGHAI) CO., LTD., priority 2022, published 2025).

Assays:
[1] = biological target: YAP-TEAD protein interaction (His-TEAD1 (209-426) protein, Bio-YAP peptide (60-100)) (Homo sapiens, UniProt P28347); assay: YAP-TEAD protein interaction HTRF experiment; format: binding; settings: His-TEAD1 (209-426) 10 nM, Bio-YAP peptide 50 nM, read-out: Activity of each compound in blocking YAP-TEAD protein interaction (grades of IC50 values)
Sequence of YAP-TEAD protein interaction (His-TEAD1 (209-426) protein, Bio-YAP peptide (60-100)) (P28347 209-426): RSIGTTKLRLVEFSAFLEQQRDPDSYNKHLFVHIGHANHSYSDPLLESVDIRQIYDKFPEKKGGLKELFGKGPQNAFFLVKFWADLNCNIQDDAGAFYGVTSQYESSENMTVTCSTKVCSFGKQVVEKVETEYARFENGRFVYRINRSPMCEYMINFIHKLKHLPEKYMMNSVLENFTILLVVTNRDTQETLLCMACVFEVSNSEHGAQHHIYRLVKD
Procedure, shortened: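 His-TEAD1 (209-426) at 10 nM final was preincubated 20 min at RT with compounds (10-point 3-fold dilutions, duplicates, 1% DMSO), then Bio-YAP peptide, 10 min. Anti-His-Eu cryptate/streptavidin-XL665 added for 1 h at RT; HTRF read at ex 320 nm, Em665/Em620 ratio ×10000, IC50 from % inhibition.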

[2] = system: MSTO-211H cells; assay: Cell proliferation inhibition experiment (CellTiter-Glo); format: cell-based; settings: Homo sapiens, 96 hours, read-out: Inhibitory activity of each compound on the proliferation of MSTO-211H cells (grades of IC50 values)
Procedure, shortened: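 MSTO-211H cells (1500/well, RPMI1640 + 10% FBS) were plated overnight at 37° C, 5% CO2, then exposed in duplicate to 9 three-fold compound dilutions (DMSO ≤0.5% final) for 96 hours. Viability was read as CellTiter-Glo luminescence after 10 min at room temperature. IC50 was derived from inhibition of the CTG signal.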

| SMILES | IC50 [1] | IC50 [2] |
| --- | --- | --- |
| CNC(=O)c1cc2c(c(F)c1-c1c(Cl)c(F)cc3c1C[C@](c1ccccc1)([C@@H]1CCCN1)O3)Oc1c(cnn(CC(F)F)c1=O)O2 (atropisomer, axis not shown) [Compound 141, (S)-8-((S)-5-Chloro-6-fluoro-2-phenyl-2-((S)-pyrrolidin-2-yl)-2,3-dihydrobenzofuran-4-yl)-2-(2,2-difluoroethyl)-9-fluoro-N-methyl-1-oxo-1,2-dihydrobenzo[5,6][1,4]dioxo[2,3-d]pyridazine-7-carboxamide] | < 50 nM | < 200 nM |
| CNC(=O)c1cc2c(c(F)c1-c1c(Cl)c(F)cc3c1C[C@](c1ccccc1)([C@@H]1CCCN1)O3)Oc1c(cnn(CCC(F)(F)F)c1=O)O2 (atropisomer, axis not shown) [Compound 142, (R)-8-((S)-5-Chloro-6-fluoro-2-phenyl-2-((S)-pyrrolidin-2-yl)-2,3-dihydrobenzofuran-4-yl)-9-fluoro-N-methyl-1-oxo-2-(3,3,3-trifluoropropyl)-1,2-dihydrobenzo[5,6][1,4]dioxa[2,3-d]pyridazine-7-carboxamide] | < 50 nM | < 200 nM |
| NC(=O)c1cc2c(c(F)c1-c1c(Cl)c(F)cc3c1C[C@](c1ccccc1)([C@@H]1CCCN1)O3)Oc1c(cnn(CC(F)(F)F)c1=O)O2 (atropisomer, axis not shown) [Compound 143, (S)-8-((S)-5-Chloro-6-fluoro-2-phenyl-2-((S)-pyrrolidin-2-yl)-2,3-dihydrobenzofuran-4-yl)-9-fluoro-1-oxo-2-(2,2,2-trifluoroethyl)-1,2-dihydroxybenzo[5,6][1,4]dioxo[2,3-d]pyridazine-7-carboxamide] | < 50 nM | < 200 nM |
| CNC(=O)c1cc2c(c(F)c1-c1c(Cl)c(F)cc3c1C[C@](c1ccccc1)([C@@H]1CCCN1)O3)Oc1c(cnn(CC(F)(F)F)c1=O)O2 (atropisomer, axis not shown) [Compound 144] | < 50 nM | < 200 nM |
| NC(=O)c1cc2c(c(F)c1-c1c(Cl)c(F)cc3c1C[C@](c1ccccc1)([C@@H]1CCCN1)O3)Oc1c(cnn(C3CC(F)(F)C3)c1=O)O2 (atropisomer, axis not shown) [Compound 147, (S)-8-((S)-5-Chloro-6-fluoro-2-phenyl-2-((S)-pyrrolidin-2-yl)-2,3-dihydrobenzofuran-4-yl)-2-(3,3-difluorocyclobutyl)-9-fluoro-1-oxo-1,2-dihydrobenzo[5,6][1,4]dioxa[2,3-d]pyridazine-7-carboxamide] | < 50 nM | < 200 nM |
| CNC(=O)c1cc2c(c(F)c1-c1c(Cl)c(F)cc3c1C[C@](c1ccccc1)([C@@H]1CCCN1)O3)Oc1c(cnn(C3CC(F)(F)C3)c1=O)O2 (atropisomer, axis not shown) [Compound 148, (S)-8-((S)-5-Chloro-6-fluoro-2-phenyl-2-((S)-pyrrolidin-2-yl)-2,3-dihydrobenzofuran-4-yl)-2-(3,3-difluorocyclobutyl)-9-fluoro-N-methyl-1-oxo-1,2-dihydrobenzo [5,6][1,4]dioxo [2,3-d]pyridazine-7-carboxamide] | < 50 nM | < 200 nM |
| COCCn1ncc2c(c1=O)Oc1c(cc(C(N)=O)c(-c3c(Cl)c(F)cc4c3C[C@](c3ccccc3)([C@@H]3CCCN3)O4)c1F)O2 (atropisomer, axis not shown) [Compound 149, (R)-8-((S)-5-Chloro-6-fluoro-2-phenyl-2-((S)-pyrrolidin-2-yl)-2,3-dihydrobenzofuran-4-yl)-9-fluoro-2-(2-methoxyethyl)-1-oxo-1,2-dihydrobenzo[5,6][1,4]dioxa[2,3-d]pyridazine-7-carboxamide] | < 50 nM | < 200 nM |

Further lines, with some results ahead:

| IC50 [1] | SMILES | IC50 [2] |
| --- | --- | --- |
| < 50 nM | CNC(=O)c1cc2c(c(F)c1-c1c(Cl)c(F)cc3c1C[C@](c1ccccc1)([C@@H]1CCCN1)O3)Oc1c(cnn(CCOC)c1=O)O2 (atropisomer, axis not shown) [Compound 150, (S)-8-((S)-5-Chloro-6-fluoro-2-phenyl-2-((S)-pyrrolidin-2-yl)-2,3-dihydrobenzofuran-4-yl)-9-fluoro-2-(2-methoxyethyl)-N-methyl-1-oxo-1,2-dihydrobenzo [5,6][1,4]dioxo [2,3-d]pyridazine-7-carboxamide] | < 200 nM |
| < 50 nM | [2H]C([2H])([2H])n1ncc2c(c1=O)Oc1c(cc(C(=O)NC)c(-c3c(Cl)c(F)cc4c3C[C@](c3ccccc3)([C@@H]3CCCN3)O4)c1F)O2 (atropisomer, axis not shown) [Compound 151, (S)-8-((S)-5-Chloro-6-fluoro-2-phenyl-2-((S)-pyrrolidin-2-yl)-2,3-dihydrobenzofuran-4-yl)-9-fluoro-N-methyl-2-(methyl-d3)-1-oxo-1,2-dihydrobenzo[5,6][1,4]dioxo [2,3-d]pyridazine-7-carboxamide] | < 200 nM |
| < 50 nM | [2H]C1([2H])CC[C@]([2H])([C@@]2(c3ccccc3)Cc3c(cc(F)c(Cl)c3-c3c(C(N)=O)cc4c(c3F)Oc3c(cnn(CC(F)F)c3=O)O4)O2)N1 (atropisomer, axis not shown) [Compound 152, (S)-8-((S)-5-Chloro-6-fluoro-2-phenyl-2-((S)-pyrrolidin-2-yl-2,5,5-d3)-2,3-dihydrobenzofuran-4-yl)-2-(2,2-difluoroethyl)-9-fluoro-1-oxo-1,2-dihydrobenzo [5,6][1,4]dioxo [2,3-d]pyridazine-7-carboxamide] | < 200 nM |
| < 50 nM | [2H]C1([2H])CC[C@]([2H])([C@@]2(c3ccccc3)Cc3c(cc(F)c(Cl)c3-c3c(C(N)=O)cc4c(c3F)Oc3c(cnn(CC(F)(F)F)c3=O)O4)O2)N1 (atropisomer, axis not shown) [Compound 153, (S)-8-((S)-5-Chloro-6-fluoro-2-phenyl-2-((S)-pyrrolidin-2-yl-2,5,5-d3)-2,3-dihydrobenzofuran-4-yl)-9-fluoro-1-oxo-2-(2,2,2-trifluoroethyl)-1,2-dihydroxybenzo[5,6][1,4] dioxo [2,3-d]pyridazine-7-carboxamide] | < 200 nM |
| < 50 nM | [2H]C1([2H])CC[C@]([2H])([C@@]2(c3ccccc3)Cc3c(cc(F)c(Cl)c3-c3c(C(N)=O)cc4c(c3F)Oc3c(cnn(C5CC(F)(F)C5)c3=O)O4)O2)N1 (atropisomer, axis not shown) [Compound 154, (S)-8-((S)-5-Chloro-6-fluoro-2-phenyl-2-((S)-pyrrolidin-2-yl-2,5,5-d3)-2,3-dihydrobenzofuran-4-yl)-2-(3,3-difluorocyclobutyl)-9-fluoro-1-oxo-1,2-dihydrobenzo[5,6][1,4]dioxo [2,3-d]pyridazine-7-carboxamide] | < 200 nM |
| < 50 nM | [2H]C1([2H])CC[C@]([2H])([C@@]2(c3ccccc3)Cc3c(cc(F)c(Cl)c3-c3c(C(N)=O)cc4c(c3F)Oc3c(cnn(CCC(F)(F)F)c3=O)O4)O2)N1 (atropisomer, axis not shown) [Compound 155, (S)-8-((S)-5-Chloro-6-fluoro-2-phenyl-2-((S)-pyrrolidin-2-yl-2,5,5-d3)-2,3-dihydrobenzofuran-4-yl)-9-fluoro-1-oxo-2-(3,3,3-trifluoropropyl)-1,2-dihydroxybenzo[5,6][1,4] dioxo[2,3-d]pyridazine-7-carboxamide] | < 200 nM |
| < 50 nM | [2H]C1([2H])CC[C@]([2H])([C@@]2(c3ccccc3)Cc3c(cc(F)c(Cl)c3-c3c(C(=O)NC)cc4c(c3F)Oc3c(cnn(CC(F)F)c3=O)O4)O2)N1 (atropisomer, axis not shown) [Compound 156, (S)-8-((S)-5-Chloro-6-fluoro-2-phenyl-2-((S)-pyrrolidin-2-yl-2,5,5-d3)-2,3-dihydrobenzofuran-4-yl)-2-(2,2-difluoroethyl)-9-fluoro-N-methyl-1-oxo-1,2-dihydrobenzo[5,6][1,4]dioxo [2,3-d]pyridazine-7-carboxamide] | < 200 nM |
| < 50 nM | [2H]C1([2H])CC[C@]([2H])([C@@]2(c3ccccc3)Cc3c(cc(F)c(Cl)c3-c3c(C(=O)NC)cc4c(c3F)Oc3c(cnn(CC(F)(F)F)c3=O)O4)O2)N1 (atropisomer, axis not shown) [Compound 157, (S)-8-((S)-5-Chloro-6-fluoro-2-phenyl-2-((S)-pyrrolidin-2-yl-2,5,5-d3)-2,3-dihydrobenzofuran-4-yl)-9-fluoro-N-methyl-1-oxo-2-(2,2,2-trifluoroethyl)-1,2-dihydroxybenzo[5,6][1,4] dioxo[2,3-d]pyridazine-7-carboxamide] | < 200 nM |
| < 50 nM | [2H]C1([2H])CC[C@]([2H])([C@@]2(c3ccccc3)Cc3c(cc(F)c(Cl)c3-c3c(C(=O)NC)cc4c(c3F)Oc3c(cnn(C5CC(F)(F)C5)c3=O)O4)O2)N1 (atropisomer, axis not shown) [Compound 158, (S)-8-((S)-5-Chloro-6-fluoro-2-phenyl-2-((S)-pyrrolidin-2-yl-2,5,5-d3)-2,3-dihydrobenzofuran-4-yl)-2-(3,3-difluorocyclobutyl)-9-fluoro-N-methyl-1-oxo-1,2-dihydrobenzo[5,6][1,4]dioxo [2,3-d]pyridazine-7-carboxamide] | < 200 nM |
